Here are results for 21 compounds from US20260132129A1 (Genesis Therapeutics, Inc., priority 2022, published 2026).

A word on the pIC50: it is the negative decadic logarithm of the IC50, by convention in mol/L.

The target in the assay is T1, PI3Kα H1047R (T47D cells) (Homo sapiens, UniProt P42336, H1047R).
T1 construct: endogenous in cells; host or cells: T47D cells
In words: PI3Kα cellular assay: pAKT HTRF in T47D cells after EGF stimulation. In kind it is cell-based. As to conditions: for pIC50: T47D cells (PI3Kα H1047R), pAKT S473 HTRF, 1 hr compound, 20 ng/ml EGF 10 min. A digest of the protocol: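 T47D cells (PIK3CA H1047R) serum-starved 16 h, then treated 1 h at 37 °C with compound (10,000 nM top, 3-fold steps to 0.5 nM). After 10 min stimulation with 20 ng/mL EGF, cells were lysed and pAKT measured by HTRF.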
(Time-resolved FRET reads energy transfer from a long-lived donor to a nearby acceptor.)

pIC50: −log10 of the molar value.

T1 sequence (P42336 whole entry H1047R): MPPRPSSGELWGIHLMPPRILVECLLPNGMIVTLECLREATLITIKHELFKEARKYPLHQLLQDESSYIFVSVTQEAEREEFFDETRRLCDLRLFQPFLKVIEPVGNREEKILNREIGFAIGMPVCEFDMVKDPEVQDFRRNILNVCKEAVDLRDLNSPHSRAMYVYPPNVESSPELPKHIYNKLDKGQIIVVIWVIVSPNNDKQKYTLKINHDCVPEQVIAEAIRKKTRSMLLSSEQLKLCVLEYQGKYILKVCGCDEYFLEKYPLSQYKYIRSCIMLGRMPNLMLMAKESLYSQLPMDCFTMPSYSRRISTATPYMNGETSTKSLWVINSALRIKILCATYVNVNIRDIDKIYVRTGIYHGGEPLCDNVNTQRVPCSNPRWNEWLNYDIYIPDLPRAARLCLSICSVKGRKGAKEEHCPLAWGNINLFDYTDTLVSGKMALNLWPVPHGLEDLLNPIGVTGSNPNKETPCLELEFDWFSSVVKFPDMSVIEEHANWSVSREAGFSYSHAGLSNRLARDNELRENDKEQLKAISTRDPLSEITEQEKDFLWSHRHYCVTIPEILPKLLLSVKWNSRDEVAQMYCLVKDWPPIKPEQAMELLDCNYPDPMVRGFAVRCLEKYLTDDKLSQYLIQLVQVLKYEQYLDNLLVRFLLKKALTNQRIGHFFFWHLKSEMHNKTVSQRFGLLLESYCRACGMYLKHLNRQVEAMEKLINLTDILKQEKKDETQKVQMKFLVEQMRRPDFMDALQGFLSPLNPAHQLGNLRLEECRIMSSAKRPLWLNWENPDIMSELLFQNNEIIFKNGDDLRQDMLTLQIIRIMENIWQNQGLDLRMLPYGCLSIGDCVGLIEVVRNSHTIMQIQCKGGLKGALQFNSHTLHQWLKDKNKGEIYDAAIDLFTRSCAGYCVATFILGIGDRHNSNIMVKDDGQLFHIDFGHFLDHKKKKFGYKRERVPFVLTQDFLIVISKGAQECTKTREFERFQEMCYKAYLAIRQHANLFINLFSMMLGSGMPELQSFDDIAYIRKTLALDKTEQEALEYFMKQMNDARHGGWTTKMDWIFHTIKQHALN
T1 sequence (P27986 whole entry partner): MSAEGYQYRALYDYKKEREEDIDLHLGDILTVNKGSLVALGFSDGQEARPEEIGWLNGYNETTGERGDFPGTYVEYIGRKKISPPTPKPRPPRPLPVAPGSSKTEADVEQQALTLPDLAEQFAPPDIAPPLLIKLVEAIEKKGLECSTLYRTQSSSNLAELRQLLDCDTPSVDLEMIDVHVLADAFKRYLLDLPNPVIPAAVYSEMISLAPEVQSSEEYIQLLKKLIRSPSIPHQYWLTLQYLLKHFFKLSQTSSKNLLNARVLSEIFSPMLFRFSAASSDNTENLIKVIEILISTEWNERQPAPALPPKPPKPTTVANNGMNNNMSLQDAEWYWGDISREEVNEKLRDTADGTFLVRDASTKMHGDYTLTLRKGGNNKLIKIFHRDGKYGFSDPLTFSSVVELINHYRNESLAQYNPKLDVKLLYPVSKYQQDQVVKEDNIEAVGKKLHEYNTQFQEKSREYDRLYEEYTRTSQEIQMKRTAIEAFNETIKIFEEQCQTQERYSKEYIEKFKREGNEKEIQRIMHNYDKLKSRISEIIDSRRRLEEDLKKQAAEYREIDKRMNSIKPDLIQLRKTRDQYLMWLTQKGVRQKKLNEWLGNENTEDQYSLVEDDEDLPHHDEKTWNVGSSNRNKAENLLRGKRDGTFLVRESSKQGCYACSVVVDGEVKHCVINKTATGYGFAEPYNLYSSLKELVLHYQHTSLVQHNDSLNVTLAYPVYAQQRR

On to `COc1cc(-c2cc(=O)n3cc(C)cc(C(C)Nc4ccccc4C(=O)O)c3n2)cc(S(N)(=O)=O)c1` (stereo not drawn) [Compound 355], for which the negative-log IC50 (pIC50) was 5.70 to 6.30 and the “T47D pAKT S473 HTRF IC50 (H1047R): T47D (H1047R) selectivity over SKBR3 (WT)” value was “B (B denotes 20-fold≥value>5-fold)”.

For `CNC(=O)c1ccc(-c2cc(=O)n3cc(C)cc(C(C)Nc4ccccc4C(=O)O)c3n2)c(C)c1` (stereo not drawn) [Compound 356], the negative-log IC50 (pIC50) is less than 5.70 and the “T47D pAKT S473 HTRF IC50 (H1047R): T47D (H1047R) selectivity over SKBR3 (WT)” value was “C (C denotes ≤5-fold)”.

On to `Cc1cc(C(C)Nc2cnncc2C(=O)O)c2nc(N3CCOCC3)cc(=O)n2c1` (stereo not drawn) [Compound 357], for which the pIC50 was less than 5.70 and the “T47D pAKT S473 HTRF IC50 (H1047R): T47D (H1047R) selectivity over SKBR3 (WT)” value is reported as “C (C denotes ≤5-fold)”.

On to `Cc1cc(C(C)Nc2ccnnc2C(=O)O)c2nc(N3CCOCC3)cc(=O)n2c1` (stereo not drawn) [Compound 358], for which the negative-log IC50 (pIC50) is less than 5.70 and the “T47D pAKT S473 HTRF IC50 (H1047R): T47D (H1047R) selectivity over SKBR3 (WT)” value is reported as “C (C denotes ≤5-fold)”.

`Cc1cc([C@@H](C)Nc2ccccc2C(=O)O)c2nc(N3CCC(C)CC3)cc(=O)n2c1` [Compound 359]: the negative-log IC50 (pIC50) was greater than 7.00 and the “T47D pAKT S473 HTRF IC50 (H1047R): T47D (H1047R) selectivity over SKBR3 (WT)” value is “A (A denotes >20-fold)”.

On to `Cc1cc([C@H](C)Nc2ccccc2C(=O)O)c2nc(N3CCC(C)CC3)cc(=O)n2c1` [Compound 360], for which the negative-log IC50 (pIC50) was less than 5.70 and the “T47D pAKT S473 HTRF IC50 (H1047R): T47D (H1047R) selectivity over SKBR3 (WT)” value was “C (C denotes ≤5-fold)”.

As for `Cc1cc([C@@H](C)Nc2ccccc2C(=O)O)c2nc(N3CCC(C)(C)CC3)cc(=O)n2c1` [Compound 361], the negative-log IC50 (pIC50) was greater than 7.00 and the “T47D pAKT S473 HTRF IC50 (H1047R): T47D (H1047R) selectivity over SKBR3 (WT)” value is on record as “A (A denotes >20-fold)”.

As for `Cc1cc([C@H](C)Nc2ccccc2C(=O)O)c2nc(N3CCC(C)(C)CC3)cc(=O)n2c1` [Compound 362], the negative-log IC50 (pIC50) was less than 5.70 and the “T47D pAKT S473 HTRF IC50 (H1047R): T47D (H1047R) selectivity over SKBR3 (WT)” value is on record as “C (C denotes ≤5-fold)”.

On to `Cc1cc(C(C)Nc2ccccc2C(=O)O)c2nc(N3CC(Cl)C3)cc(=O)n2c1` (stereo not drawn) [Compound 363], for which the negative logarithm of the IC50 (pIC50) was 6.30 to 7.00 and the “T47D pAKT S473 HTRF IC50 (H1047R): T47D (H1047R) selectivity over SKBR3 (WT)” value is reported as “A (A denotes >20-fold)”.

Take `Cc1cc([C@@H](C)Nc2ccccc2C(=O)O)c2nc(N3CC(Cl)C3)cc(=O)n2c1` [Compound 364]: the negative-log IC50 (pIC50) is greater than 7.00 and the “T47D pAKT S473 HTRF IC50 (H1047R): T47D (H1047R) selectivity over SKBR3 (WT)” value was “A (A denotes >20-fold)”.

For the compound `Cc1cc([C@H](C)Nc2ccccc2C(=O)O)c2nc(N3CC(Cl)C3)cc(=O)n2c1` [Compound 365], the pIC50 was less than 5.70 and the “T47D pAKT S473 HTRF IC50 (H1047R): T47D (H1047R) selectivity over SKBR3 (WT)” value is given as “C (C denotes ≤5-fold)”.

Take `Cc1cc(C(C)Nc2ccccc2C(=O)O)c2nc(Nc3ccc(C(=O)O)cc3)cc(=O)n2c1` (stereo not drawn) [Compound 369]: the pIC50 was less than 5.70 and the “T47D pAKT S473 HTRF IC50 (H1047R): T47D (H1047R) selectivity over SKBR3 (WT)” value is listed as “C (C denotes ≤5-fold)”.

As to `Cc1cc(C(C)Nc2ccccc2C(=O)O)c2nc(N3CCO[C@H](C)C3)cc(=O)n2c1` (stereo partly drawn) [Compound 372], the negative logarithm of the IC50 (pIC50) is 6.30 to 7.00 and the “T47D pAKT S473 HTRF IC50 (H1047R): T47D (H1047R) selectivity over SKBR3 (WT)” value is “B (B denotes 20-fold≥value>5-fold)”.

With `Cc1cc([C@H](C)Nc2ccccc2C(=O)O)c2nc(N3CCO[C@H](C)C3)cc(=O)n2c1` [Compound 374], the negative-log IC50 (pIC50) was greater than 7.00 and the “T47D pAKT S473 HTRF IC50 (H1047R): T47D (H1047R) selectivity over SKBR3 (WT)” value is listed as “A (A denotes >20-fold)”.

Regarding `Cc1cc([C@@H](C)Nc2cnncc2C(=O)O)c2nc(N3CCOCC3)cc(=O)n2c1` [Compound 375], the negative-log IC50 (pIC50) is less than 5.70 and the “T47D pAKT S473 HTRF IC50 (H1047R): T47D (H1047R) selectivity over SKBR3 (WT)” value is on record as “C (C denotes ≤5-fold)”.

Regarding `Cc1cc([C@H](C)Nc2cnncc2C(=O)O)c2nc(N3CCOCC3)cc(=O)n2c1` [Compound 376], the negative logarithm of the IC50 (pIC50) was less than 5.70 and the “T47D pAKT S473 HTRF IC50 (H1047R): T47D (H1047R) selectivity over SKBR3 (WT)” value is listed as “C (C denotes ≤5-fold)”.

`Cc1cc([C@@H](C)Nc2ccnnc2C(=O)O)c2nc(N3CCOCC3)cc(=O)n2c1` [Compound 377]: the pIC50 was less than 5.70 and the “T47D pAKT S473 HTRF IC50 (H1047R): T47D (H1047R) selectivity over SKBR3 (WT)” value is given as “C (C denotes ≤5-fold)”.

In the case of `Cc1cc([C@H](C)Nc2ccnnc2C(=O)O)c2nc(N3CCOCC3)cc(=O)n2c1` [Compound 378], the pIC50 was less than 5.70 and the “T47D pAKT S473 HTRF IC50 (H1047R): T47D (H1047R) selectivity over SKBR3 (WT)” value is listed as “C (C denotes ≤5-fold)”.

Regarding `Cc1cc(C(C)Nc2c(C(=O)O)cnn2C)c2nc(N3CCOCC3)cc(=O)n2c1` (stereo not drawn) [Compound 379], the negative logarithm of the IC50 (pIC50) was less than 5.70 and the “T47D pAKT S473 HTRF IC50 (H1047R): T47D (H1047R) selectivity over SKBR3 (WT)” value is reported as “C (C denotes ≤5-fold)”.

For `Cc1cc(C(C)Nc2ccccc2C(=O)O)c2nc(-c3cc[nH]c(=O)c3)cc(=O)n2c1` (stereo not drawn) [Compound 380], the negative logarithm of the IC50 (pIC50) was less than 5.70 and the “T47D pAKT S473 HTRF IC50 (H1047R): T47D (H1047R) selectivity over SKBR3 (WT)” value was “C (C denotes ≤5-fold)”.

On to `Cc1cc([C@@H](C)Nc2c(C(=O)O)cnn2C)c2nc(N3CCOCC3)cc(=O)n2c1` [Compound 390], for which the negative logarithm of the IC50 (pIC50) was less than 5.70 and the “T47D pAKT S473 HTRF IC50 (H1047R): T47D (H1047R) selectivity over SKBR3 (WT)” value is on record as “C (C denotes ≤5-fold)”.
